Laboratory results taken from patent US20230000842A1, “METHODS OF TREATING CARTILAGE DISORDERS THROUGH INHIBITION OF CLK AND DYRK” (SAMUMED, LLC, priority 2019, published 2023).

What was measured:
[1] = target: CLK3 kinase (Homo sapiens, UniProt P49761); assay: CLK3 kinase activity assay (Z-lyte FRET); assay type: biochemical; settings: Z-lyte Ser/Thr 18 peptide, 156 μM ATP, 1 h at room temperature;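 note: kinase activity read as coumarin/fluorescein emission ratio by FRET, unphosphorylated peptide as 0% and phosphorylated peptide as 100% control, values from non-linear regression of dose-response curves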
Sequence of CLK3 kinase (P49761 whole entry): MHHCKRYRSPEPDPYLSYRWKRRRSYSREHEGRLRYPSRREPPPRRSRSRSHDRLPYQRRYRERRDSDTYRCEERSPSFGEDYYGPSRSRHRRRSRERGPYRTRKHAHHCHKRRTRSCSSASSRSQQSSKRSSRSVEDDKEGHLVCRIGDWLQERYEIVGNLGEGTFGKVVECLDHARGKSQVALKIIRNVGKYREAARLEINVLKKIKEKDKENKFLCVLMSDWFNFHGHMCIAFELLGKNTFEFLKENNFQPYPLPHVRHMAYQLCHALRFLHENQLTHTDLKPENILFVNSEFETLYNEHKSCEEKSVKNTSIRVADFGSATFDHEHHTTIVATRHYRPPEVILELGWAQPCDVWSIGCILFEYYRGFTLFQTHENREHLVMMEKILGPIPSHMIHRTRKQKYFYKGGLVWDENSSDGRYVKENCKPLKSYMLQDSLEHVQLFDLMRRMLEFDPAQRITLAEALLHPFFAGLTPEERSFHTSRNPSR

[2] = system: MMP-3 levels in supernatant of chondrocytes stimulated with IL1-β; assay: Chondrocyte protection assay compound screening (MMP-3 LANCE Ultra); assay type: cell-based, human; settings: IL1-β 10 ng/mL overnight, 11-point curves from 3 μM to 0.05 nM; for Emax: read-out: Maximum % Inhibition
Protocol: Human Chondrocyte Cell Culture: Primary human chondrocytes were purchased from Lonza (Walkersville, Md.) and expanded in Chondrocyte Growth Media (CGM, Lonza). Cells between passage 2 and 5 were used for the experiments.
Chondrocytes were plated at 8,000 cells/well in 40 μL/well Chondrocyte Differentiation Medium (Lonza; 500 mL Basal Medium, 25 mL FBS, 0.5 mL GA-1000, 1 mL R3-IGF, 2.5 mL bFGF, 0.5 mL Transferrin, and 1 mL Insulin). After 2 hours of incubation at 37° C. and 5% CO2, IL1-β (Peprotech, Rocky Hill, N.J.) was added to a final concentration of 10 ng/mL. 11 wells in 1 row were left unstimulated for normalization and calculating EC50 values. Cells were incubated at 37° C. and 5% CO2 overnight. Assay plates are spun, 25 μl of supernatant media was collected using (S2 pipettor, Apricot Designs). Cells were lysed using 10 μL of (Cell Titer-Glo, Promega). Luminescent signal detected using an En Vision Multilabel reader (Perkin Elmer). MMP-3 levels were measured in supernatant. Supernatant diluted 1:7 in DMEM. MMP-3 levels in the supernatant were measured using MMP-3 LANCE Ultra detection kit (Perkin Elmer). Briefly, 5 μL of diluted supernatant was transferred to low-volume 384 well plates using (S2 pipettor, Apricot Designs). A standard curve was prepared using MMP-3 analyte (range […]). 1.7 μL of 8× mix of Eu-labelled anti-MMP-3 antibody and ULight labelled anti-MMP-3 antibody was added to the plates using Mantis Liquid handler (Formulatrix). Plates were incubated overnight at room temperature. LANCE signal was detected using an EnVision Multilabel reader (Perkin Elmer), equipped with TR-FRET using excitation wavelength of 320 nm and two emission wavelengths of 615 nm and 665 nm. Data was analyzed according to the kit protocol, using the ratio of […] and the standard curve values were used to calculate the amount of MMP3 in the […] (in pg/ml). The normalized averages (fold change over IL1-β stimulated) for each compound concentration were calculated. EC50 and maximum % inhibition values were calculated using the dose-response nonlinear regression curve-fit in Dotmatics.

[3] = target: CLK2 kinase (Homo sapiens, UniProt P49760); assay: CLK2 kinase activity assay (Z-lyte FRET); assay type: biochemical; settings: Z-lyte Ser/Thr 6 peptide, 60 μM ATP, 1 h at room temperature;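 note: FRET read-out as coumarin to fluorescein emission ratio, unphosphorylated peptide as 0% and phosphorylated peptide as 100% controls, duplicate reactions, non-linear regression fit of dose-response curves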
Sequence of CLK2 kinase (P49760 whole entry): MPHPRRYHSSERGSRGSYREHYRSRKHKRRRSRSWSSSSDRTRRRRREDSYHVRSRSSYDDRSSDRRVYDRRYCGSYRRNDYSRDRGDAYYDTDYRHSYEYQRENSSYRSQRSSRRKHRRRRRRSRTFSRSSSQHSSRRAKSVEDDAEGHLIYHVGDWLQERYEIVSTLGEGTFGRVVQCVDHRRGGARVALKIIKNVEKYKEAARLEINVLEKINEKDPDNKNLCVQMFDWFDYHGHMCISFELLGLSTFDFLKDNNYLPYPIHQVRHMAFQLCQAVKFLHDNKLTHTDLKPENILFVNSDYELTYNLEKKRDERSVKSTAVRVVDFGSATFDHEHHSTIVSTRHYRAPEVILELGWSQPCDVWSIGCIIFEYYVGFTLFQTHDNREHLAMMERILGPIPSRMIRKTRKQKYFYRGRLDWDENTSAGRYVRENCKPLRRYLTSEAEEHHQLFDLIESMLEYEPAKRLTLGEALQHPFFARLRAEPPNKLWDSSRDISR
Protocol: This is a non-radioactive assay using fluorescence resonance energy transfer (FRET) between coumarin and fluorescein to detect kinase activity which is represented as a ratio of coumarin emission/fluorescein emission.
The mixture was allowed to incubate with the representative compounds for one hour at room temperature. All reactions were performed in duplicate. Unphosphorylated (“0% Control”) and phosphorylated (“100% control”) forms of Ser/Thr 6 served as control reactions. Additionally, an 11-point dose-response curve of Staurosporine (1 μM top) was run to serve as a positive compound control.
After incubation, Development Reagent A was diluted in Development Buffer then added to the reaction and allowed to further incubate for one hour at room temperature.
Dose-response curves were generated and inhibitory concentration (IC50) values were calculated using non-linear regression curve fit in the Dotmatics' Studies Software (Bishops Stortford, UK).

[4] = system: primary human mesenchymal stem cells (hMSCs); assay: Chondrogenesis screening using primary human mesenchymal stem cells; assay type: cell-based; settings: Homo sapiens, Mesenchymal stem cells, hMSC chondrogenesis; maximum activity relative to TGF-β3 (10 ng/mL) positive control; read-out: Max. Activity as % TGF-β3 activity
How it was run: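 Primary hMSCs at passage 3–6 were treated across compound concentrations, with TGF-β3 as positive control. Chondrogenic nodule area per well was normalized to 3 DMSO wells on the same plate (fold over DMSO, 2–3 replicates). EC50, maximum activity and the dose reaching it were derived.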

CN(C)Cc1ccc(C(=O)Nc2cc3cc(-c4cnn(C)c4)ccc3cn2)cc1 [compound 540]
EC50 [1]: 0.041 µM | EC50 ([2]; Homo sapiens, Chondrocyte): 0.0474 µM | Emax ([2]; Homo sapiens, Chondrocyte): 80.7% | EC50 [3]: 0.003 µM

CN1CCC(Oc2ccc(C(=O)Nc3cc4cc(-c5cnn(C)c5)ccc4cn3)cc2)CC1 [compound 541]
EC50 [1]: 0.014 µM | Emax [4]: 25.4% | EC50 ([2]; Homo sapiens, Chondrocyte): ≥ 3 µM | Emax ([2]; Homo sapiens, Chondrocyte): 95.6% | EC50 [3]: 0.001 µM

CN1CCN(c2ccc(C(=O)Nc3cc4cc(-c5cnn(C)c5)ccc4cn3)cn2)CC1 [compound 542]
EC50 [1]: 0.036 µM | EC50 [2]: 0.0095 µM | Maximum % Inhibition [2]: 47.6%

CN(C)CCNc1cc(C(=O)Nc2cc3cc(-c4cnn(C)c4)ccc3cn2)ccn1 [compound 543]
EC50 [1]: 0.06 µM | EC50 ([2]; Homo sapiens, Chondrocyte): 0.306 µM | Emax ([2]; Homo sapiens, Chondrocyte): 81.8% | EC50 [3]: 0.003 µM

CN(C)CCOc1cc(C(=O)Nc2cc3cc(-c4cnn(C)c4)ccc3cn2)ccn1 [compound 544]
EC50 [1]: 0.031 µM | EC50 ([2]; Homo sapiens, Chondrocyte): 1.01 µM | Emax ([2]; Homo sapiens, Chondrocyte): 63.5% | EC50 [3]: 0.002 µM

CN1CCN(c2cc(C(=O)Nc3cc4cc(-c5cnn(C)c5)c(F)cc4cn3)ccn2)CC1 [compound 546]
EC50 [1]: 0.021 µM | EC50 ([2]; Homo sapiens, Chondrocyte): 0.0004 µM | Emax ([2]; Homo sapiens, Chondrocyte): 97.3% | EC50 [3]: 0.002 µM

CN1CCN(c2cc(C(=O)Nc3cc4c(Cl)c(-c5cnn(C)c5)ccc4cn3)ccn2)CC1 [compound 547]
EC50 [1]: 0.043 µM | EC50 ([2]; Homo sapiens, Chondrocyte): 0.898 µM | Emax ([2]; Homo sapiens, Chondrocyte): 52.1% | EC50 [3]: 0.003 µM

Cc1cc(C(=O)Nc2cc3cc(-c4cnn(C)c4)ccc3cn2)cc(N2CCN(C)CC2)n1 [compound 548]
EC50 [1]: 0.026 µM | EC50 ([2]; Homo sapiens, Chondrocyte): ≥ 3 µM | Emax ([2]; Homo sapiens, Chondrocyte): 62.4% | EC50 [3]: 0.002 µM

Cn1cc(-c2ccc3cnc(NC(=O)c4ccnc(N5CC6CC5CN6)c4)cc3c2)cn1 (stereo not shown) [compound 549]
EC50 [1]: 0.026 µM | EC50 ([2]; Homo sapiens, Chondrocyte): ≥ 3 µM | Emax ([2]; Homo sapiens, Chondrocyte): 69% | EC50 [3]: 0.003 µM

CN1CCCN(c2cc(C(=O)Nc3cc4cc(-c5cnn(C)c5)ccc4cn3)ccn2)CC1 [compound 550]
EC50 [1]: 0.028 µM | EC50 ([2]; Homo sapiens, Chondrocyte): ≥ 3 µM | Emax ([2]; Homo sapiens, Chondrocyte): 66.9%

CN1CCN(c2ccc(C(=O)Nc3cc4cc(-c5cnn(C)c5)ccc4cn3)cn2)CC1 [compound 551]
EC50 [1]: 0.078 µM | EC50 [2]: 1.05 µM | Maximum % Inhibition [2]: 100.0%

CN(C)C1CCN(c2cc(C(=O)Nc3cc4cc(-c5cnn(C)c5)ccc4cn3)ccn2)CC1 [compound 552]
EC50 [1]: 0.009 µM | EC50 ([2]; Homo sapiens, Chondrocyte): 0.697 µM | Emax ([2]; Homo sapiens, Chondrocyte): 83.2%

CN1CCN(c2ccc(C(=O)N3CCN(c4cc(C(=O)Nc5cc6cc(-c7cnn(C)c7)ccc6cn5)ccn4)CC3)cn2)CC1 [compound 553]
EC50 [1]: 0.28 µM | EC50 ([2]; Homo sapiens, Chondrocyte): 0.304 µM | Emax ([2]; Homo sapiens, Chondrocyte): 52.3% | EC50 [3]: 0.002 µM

CN1CCC2(CC1)CN(c1cc(C(=O)Nc3cc4cc(-c5cnn(C)c5)ccc4cn3)ccn1)C2 [compound 554]
EC50 [1]: 0.016 µM | EC50 ([2]; Homo sapiens, Chondrocyte): ≥ 3 µM | Emax ([2]; Homo sapiens, Chondrocyte): 53.7% | EC50 [3]: 0.001 µM

Cn1cc(-c2ccc3cnc(NC(=O)c4ccnc(OC5CNC5)c4)cc3c2)cn1 [compound 556]
EC50 [1]: 0.038 µM | EC50 ([2]; Homo sapiens, Chondrocyte): 0.154 µM | Emax ([2]; Homo sapiens, Chondrocyte): 100% | EC50 [3]: 0.002 µM

Cn1cc(-c2ccc3cnc(NC(=O)c4ccc5c(c4)CNCC5)cc3c2)cn1 [compound 557]
EC50 [1]: 0.039 µM | EC50 ([2]; Homo sapiens, Chondrocyte): 1.63 µM | Emax ([2]; Homo sapiens, Chondrocyte): 50.5% | EC50 [3]: 0.002 µM

Cn1cc(-c2ccc3cnc(NC(=O)c4ccc5c(c4)ncn5C)cc3c2)cn1 [compound 558]
EC50 [1]: 0.049 µM | EC50 ([2]; Homo sapiens, Chondrocyte): ≥ 3 µM | Emax ([2]; Homo sapiens, Chondrocyte): 46.9% | EC50 [3]: 0.003 µM

Cn1cc(-c2ccc3cnc(NC(=O)C4=CNC5C=CC=CC5=C4)cc3c2)cn1 (stereo not shown) [compound 559]
EC50 [1]: 0.066 µM | EC50 ([2]; Homo sapiens, Chondrocyte): 0.0191 µM | Emax ([2]; Homo sapiens, Chondrocyte): 41.2% | EC50 [3]: 0.004 µM

Cn1cc(-c2ccc3cnc(NC(=O)c4ccc5cnccc5c4)cc3c2)cn1 [compound 560]
EC50 [1]: 0.085 µM | EC50 ([2]; Homo sapiens, Chondrocyte): ≥ 3 µM | Emax ([2]; Homo sapiens, Chondrocyte): 63.6% | EC50 [3]: 0.004 µM
